# Assays:
# [1] = biological target: T1, Cytochrome P450 4Z1 (Homo sapiens, UniProt Q86W10); assay: Inhibition of human CYP4Z1 overexpressed in human MCF7 cells using luciferin-BE as substrate incubated for 24 hrs followed by substrate addition by luminescence based assay; type: cell-based
# T1 sequence (Q86W10 whole entry): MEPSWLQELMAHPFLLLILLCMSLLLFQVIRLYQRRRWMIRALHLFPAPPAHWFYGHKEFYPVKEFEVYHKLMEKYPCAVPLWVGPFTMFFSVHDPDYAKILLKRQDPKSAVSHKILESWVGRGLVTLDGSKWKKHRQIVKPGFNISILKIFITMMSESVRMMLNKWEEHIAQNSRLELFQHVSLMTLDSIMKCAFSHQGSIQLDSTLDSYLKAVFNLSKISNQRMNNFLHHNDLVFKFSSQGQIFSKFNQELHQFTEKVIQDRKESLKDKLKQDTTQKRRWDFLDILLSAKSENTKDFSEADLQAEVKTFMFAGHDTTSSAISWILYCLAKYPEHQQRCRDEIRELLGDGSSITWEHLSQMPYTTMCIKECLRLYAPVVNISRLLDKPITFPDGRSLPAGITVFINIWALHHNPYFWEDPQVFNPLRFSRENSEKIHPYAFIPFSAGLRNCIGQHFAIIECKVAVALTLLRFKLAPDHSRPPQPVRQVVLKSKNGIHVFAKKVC
# [2] = biological target: T1, Cytochrome P450 4Z1; assay: Inhibition of human CYP4Z1 overexpressed in human MCF7 cells using luciferin-3FBE as substrate incubated for 24 hrs followed by substrate addition by luminescence based assay; type: cell-based
# [3] = biological target: T1, Cytochrome P450 4Z1; assay: Inhibition of human CYP4Z1 expressed in permeabilized fission AZ3 yeast cells at 100 nM using luciferin-3FBE as substrate incubated for 3 hrs by luminescence based enzyme bag assay relative to control; type: cell-based
# [4] = biological target: T1, Cytochrome P450 4Z1; assay: Inhibition of human CYP4Z1 overexpressed in human MCF7 cells at 1 uM using luciferin-3FBE as substrate incubated for 24 hrs followed by substrate addition by luminescence based assay relative to control; type: cell-based
# [5] = biological target: CYP2C9 (Homo sapiens, UniProt P11712); assay: Inhibition of human CYP2C9 at 1 uM using luciferin-H as substrate by enzyme bag based one point inhibition assay relative to control; type: ADME; settings: enzyme bags, probe luciferin-H
# [6] = biological target: CYP2C19 (Homo sapiens, UniProt P33261); assay: Inhibition of human CYP2C19 at 1 uM using luciferin-HEGE as substrate by enzyme bag based one point inhibition assay relative to control; type: ADME; settings: enzyme bags, probe luciferin-HEGE
# [7] = biological target: T2, CYP1A2 (Homo sapiens, UniProt P05177); assay: Inhibition of human CYP1A2 at 1 uM using luciferin-ME as substrate by enzyme bag based one point inhibition assay relative to control; type: ADME; settings: enzyme bags, probe luciferin-ME
# T2 sequence (P05177 whole entry): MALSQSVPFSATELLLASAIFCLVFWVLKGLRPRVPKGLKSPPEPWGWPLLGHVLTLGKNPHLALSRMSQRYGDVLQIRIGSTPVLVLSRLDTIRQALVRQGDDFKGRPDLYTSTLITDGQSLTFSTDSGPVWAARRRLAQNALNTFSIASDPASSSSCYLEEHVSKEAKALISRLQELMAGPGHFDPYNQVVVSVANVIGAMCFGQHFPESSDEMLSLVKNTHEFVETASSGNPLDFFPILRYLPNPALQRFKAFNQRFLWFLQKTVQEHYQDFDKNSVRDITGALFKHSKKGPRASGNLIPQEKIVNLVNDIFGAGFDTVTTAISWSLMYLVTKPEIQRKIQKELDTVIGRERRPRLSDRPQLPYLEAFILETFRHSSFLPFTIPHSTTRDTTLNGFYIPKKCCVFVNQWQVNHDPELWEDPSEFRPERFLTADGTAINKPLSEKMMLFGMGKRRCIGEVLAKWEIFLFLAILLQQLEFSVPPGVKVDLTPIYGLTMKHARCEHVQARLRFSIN
# [8] = biological target: CYP2D6 (Homo sapiens, UniProt P10635); assay: Inhibition of human CYP2D6 at 1 uM using luciferin-MEEGE as substrate by enzyme bag based one point inhibition assay relative to control; type: ADME; settings: enzyme bags, probe luciferin-MEEGE
# [9] = biological target: CYP2E1 (Homo sapiens, UniProt P05181); assay: Inhibition of human CYP2E1 at 1 uM using luciferin-ME as substrate by enzyme bag based one point inhibition assay relative to control; type: ADME; settings: enzyme bags, probe luciferin-ME
# [10] = biological target: CYP3A4 (Homo sapiens, UniProt P08684); assay: Inhibition of human CYP3A4 at 1 uM using luciferin-BE as substrate by enzyme bag based one point inhibition assay relative to control; type: ADME; settings: enzyme bags, probe luciferin-BE
# Sequence of CYP3A4 (P08684 whole entry): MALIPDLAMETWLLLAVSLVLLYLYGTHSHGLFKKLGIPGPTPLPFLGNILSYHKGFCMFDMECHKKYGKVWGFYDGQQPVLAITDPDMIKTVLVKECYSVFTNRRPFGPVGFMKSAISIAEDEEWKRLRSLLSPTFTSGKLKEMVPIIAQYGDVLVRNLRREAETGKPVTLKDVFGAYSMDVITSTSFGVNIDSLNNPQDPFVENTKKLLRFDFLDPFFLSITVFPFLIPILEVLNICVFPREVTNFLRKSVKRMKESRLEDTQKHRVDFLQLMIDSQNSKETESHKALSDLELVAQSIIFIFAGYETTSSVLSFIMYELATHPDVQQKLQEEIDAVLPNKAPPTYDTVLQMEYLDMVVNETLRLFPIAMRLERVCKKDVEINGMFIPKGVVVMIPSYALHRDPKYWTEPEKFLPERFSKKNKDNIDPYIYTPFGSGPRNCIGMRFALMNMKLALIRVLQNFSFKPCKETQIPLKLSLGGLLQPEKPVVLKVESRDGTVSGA
# Sequence of CYP2C19 (P33261 whole entry): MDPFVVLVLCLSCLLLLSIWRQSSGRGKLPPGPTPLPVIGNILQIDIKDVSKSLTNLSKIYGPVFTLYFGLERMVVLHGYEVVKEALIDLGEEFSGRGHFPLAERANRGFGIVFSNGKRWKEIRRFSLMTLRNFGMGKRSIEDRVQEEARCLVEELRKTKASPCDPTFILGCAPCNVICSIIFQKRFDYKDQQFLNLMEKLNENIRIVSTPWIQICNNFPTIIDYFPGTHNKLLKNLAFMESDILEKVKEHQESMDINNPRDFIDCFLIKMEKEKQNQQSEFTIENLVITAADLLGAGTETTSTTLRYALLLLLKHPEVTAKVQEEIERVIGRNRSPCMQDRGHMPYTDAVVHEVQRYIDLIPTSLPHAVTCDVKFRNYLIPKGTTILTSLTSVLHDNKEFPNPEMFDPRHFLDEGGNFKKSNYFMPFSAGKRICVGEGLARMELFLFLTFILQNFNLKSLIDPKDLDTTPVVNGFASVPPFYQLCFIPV
# Sequence of CYP2D6 (P10635 whole entry): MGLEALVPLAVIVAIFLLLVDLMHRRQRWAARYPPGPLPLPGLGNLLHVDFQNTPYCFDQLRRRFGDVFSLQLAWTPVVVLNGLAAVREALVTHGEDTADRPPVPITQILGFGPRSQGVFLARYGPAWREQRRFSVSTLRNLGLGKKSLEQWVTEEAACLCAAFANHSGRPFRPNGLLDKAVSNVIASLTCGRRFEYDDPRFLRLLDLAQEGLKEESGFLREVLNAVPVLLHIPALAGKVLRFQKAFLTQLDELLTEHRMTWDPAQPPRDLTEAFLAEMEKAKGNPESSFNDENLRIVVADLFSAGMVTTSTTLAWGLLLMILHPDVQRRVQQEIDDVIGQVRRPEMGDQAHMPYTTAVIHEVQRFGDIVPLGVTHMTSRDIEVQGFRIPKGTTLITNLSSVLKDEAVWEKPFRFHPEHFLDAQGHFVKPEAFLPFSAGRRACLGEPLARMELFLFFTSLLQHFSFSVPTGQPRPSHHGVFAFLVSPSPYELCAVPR
# Sequence of CYP2C9 (P11712 whole entry): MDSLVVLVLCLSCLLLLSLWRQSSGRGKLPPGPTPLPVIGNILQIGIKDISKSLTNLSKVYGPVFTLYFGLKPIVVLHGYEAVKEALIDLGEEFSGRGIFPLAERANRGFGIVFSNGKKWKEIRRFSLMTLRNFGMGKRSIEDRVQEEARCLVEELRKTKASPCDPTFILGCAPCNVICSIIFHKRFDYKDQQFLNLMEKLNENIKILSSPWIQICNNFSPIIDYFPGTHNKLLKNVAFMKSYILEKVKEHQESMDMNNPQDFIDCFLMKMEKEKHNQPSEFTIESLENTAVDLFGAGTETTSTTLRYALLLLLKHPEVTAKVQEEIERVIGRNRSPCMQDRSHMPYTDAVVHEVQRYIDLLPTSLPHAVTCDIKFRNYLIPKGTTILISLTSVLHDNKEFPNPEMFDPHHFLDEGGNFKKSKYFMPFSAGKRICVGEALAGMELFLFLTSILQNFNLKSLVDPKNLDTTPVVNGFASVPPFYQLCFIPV
# Sequence of CYP2E1 (P05181 whole entry): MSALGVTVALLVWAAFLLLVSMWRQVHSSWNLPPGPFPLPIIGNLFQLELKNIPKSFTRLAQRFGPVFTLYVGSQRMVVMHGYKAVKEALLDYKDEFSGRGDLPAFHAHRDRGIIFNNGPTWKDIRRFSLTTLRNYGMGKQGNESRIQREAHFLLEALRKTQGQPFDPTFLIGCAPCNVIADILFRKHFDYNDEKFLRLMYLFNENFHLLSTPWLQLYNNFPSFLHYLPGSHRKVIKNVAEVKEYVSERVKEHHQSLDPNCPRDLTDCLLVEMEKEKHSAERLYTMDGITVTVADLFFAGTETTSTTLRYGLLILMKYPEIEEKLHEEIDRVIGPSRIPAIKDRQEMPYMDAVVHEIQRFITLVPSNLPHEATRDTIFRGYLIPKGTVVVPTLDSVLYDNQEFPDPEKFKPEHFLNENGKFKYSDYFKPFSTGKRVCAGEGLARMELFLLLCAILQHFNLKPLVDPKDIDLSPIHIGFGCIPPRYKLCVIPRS
SMILES,IC50 [1] [µM],IC50 [2] [µM],inhibition at 0.1 µM [3] [%],inhibition at 1 µM [4] [%],inhibition at 1 µM [5] [%],inhibition at 1 µM [6] [%],inhibition at 1 µM [7] [%],inhibition at 1 µM [8] [%],inhibition at 1 µM [9] [%],inhibition at 1 µM [10] [%]
c1ccc(Cn2ccnc2)cc1,5.9,6.7,9,0,,,,,,
O=C(O)CCC1CCCN(C(=O)c2ccc(Cn3ccnc3)cc2)C1 (stereo unspecified),,,1,12,,,,,,
CC1CCN(C(=O)c2cccc(OCC(=O)O)c2)CC1n1ccnc1 (stereo unspecified),,,13,22,,,,,,
Cn1cnc2cc(C(=O)Nc3ccc(Oc4nn[nH]n4)cc3)ccc21,,,5,10,,,,,,
O=C(O)c1cccc(CNC(=O)c2ccc(-n3ccnc3)cc2)c1,,0.063,36,82,-0.2,1.4,2.7,-5.8,54,12
O=C(O)/C=C/c1ccc(Cn2ccnc2)cc1 [OZAGREL],,,21,24,,,,,,
